Data taken from patent US20110053916A1 (Vertex Pharmaceuticals Incorporated, priority 2009, published 2011).

Assays:
[1] = tested on: Mycobacterium tuberculosis H37Ra; assay: Mycobacterium tuberculosis growth inhibition assay (microtiter dilution, resazurin reduction); assay type: cell-based; settings: 7H9 broth, 9 days + 24 h resazurin, lowest concentration inhibiting resazurin reduction by >70%, several symbols in a cell = repeat determinations
Procedure, shortened: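 Resazurin-based microtiter dilution MIC: compounds in 7- or 11-step two-fold series with ~1×10^6 cells/mL H37Ra in 7H9/10% ADC, 9 days at 37 °C, then 24 h with dye. MIC is the lowest concentration giving >70% inhibition of resazurin reduction relative to DMSO controls, by 492/595 nm fluorescence.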

PknB = target: T1, PknB (Mycobacterium tuberculosis, UniProt P9WI81); assay: biochemical; set-up: species or system M. tuberculosis; settings: 3 nM PknB, 6 uM GarA, 3 μM ATP, 30 min; competitive tight-binding fit; several symbols in a cell = repeat determinations; read-out: Ki Values
T1 construct: made in house
T1 sequence (P9WI81 whole entry): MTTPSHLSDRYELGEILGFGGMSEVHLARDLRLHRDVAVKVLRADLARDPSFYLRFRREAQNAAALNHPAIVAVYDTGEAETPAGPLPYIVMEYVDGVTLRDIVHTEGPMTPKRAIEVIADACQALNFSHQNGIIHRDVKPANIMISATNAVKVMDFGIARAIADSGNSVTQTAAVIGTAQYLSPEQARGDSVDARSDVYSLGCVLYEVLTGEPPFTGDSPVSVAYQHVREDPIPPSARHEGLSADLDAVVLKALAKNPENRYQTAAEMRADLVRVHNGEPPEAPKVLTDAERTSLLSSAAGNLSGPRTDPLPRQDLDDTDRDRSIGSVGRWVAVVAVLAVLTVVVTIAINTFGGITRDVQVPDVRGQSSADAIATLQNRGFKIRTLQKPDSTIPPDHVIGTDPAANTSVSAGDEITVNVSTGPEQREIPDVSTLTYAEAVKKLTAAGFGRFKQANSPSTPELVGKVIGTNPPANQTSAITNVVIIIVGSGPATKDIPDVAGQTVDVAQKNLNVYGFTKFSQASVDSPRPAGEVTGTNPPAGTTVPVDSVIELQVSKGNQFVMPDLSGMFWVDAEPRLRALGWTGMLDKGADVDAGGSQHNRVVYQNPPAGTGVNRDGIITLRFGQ

Row | Structure (SMILES) | MIC values [1] | Ki (PknB) [nM]
1 | O=S(=O)(c1ccc(-c2ncc(Cl)c(Nc3cc(C4CC4)[nH]n3)n2)s1)n1cccc1 [Compound 307, 5-chloro-N-(5-cyclopropyl-1H-pyrazol-3-yl)-2-(5-pyrrol-1-ylsulfonyl-2-thienyl)-pyrimidin-4-amine] | B+ | 10 to 50
2 | CC(=O)c1ccc(-c2nccc(Nc3cc(C4CC4)[nH]n3)n2)cc1 [Compound 308, 1-[4-[4-[(5-cyclopropyl-1H-pyrazol-3-yl)amino]pyrimidin-2-yl]phenyl]ethanone] | B+ | 10 to 50
3 | CC(O)c1ccc(-c2nccc(Nc3cc(C4CC4)[nH]n3)n2)cc1 (stereo not shown) [Compound 312, 1-[4-[4-[(5-cyclopropyl-1H-pyrazol-3-yl)amino]pyrimidin-2-yl]phenyl]ethanol] | B+ | 10 to 50
4 | CC(=O)OCCc1cnc(-c2ccc(S(N)(=O)=O)s2)nc1Nc1cc(C2CC2)[nH]n1 [Compound 313, 2-(4-(5-cyclopropyl-1H-pyrazol-3-ylamino)-2-(5-sulfamoylthiophen-2-yl)pyrimidin-5-yl)ethyl acetate] | A+ | 10 to 50
5 | CC(O)c1cccc(-c2nccc(Nc3cc(C4CC4)[nH]n3)n2)c1 (stereo not shown) [Compound 316, 1-[3-[4-[(5-cyclopropyl-1H-pyrazol-3-yl)amino]pyrimidin-2-yl]phenyl]ethanol] | B+ | 10 to 50
6 | CC(=O)c1cccc(-c2nccc(Nc3cc(C4CC4)[nH]n3)n2)c1 [Compound 317, 1-[3-[4-[(5-cyclopropyl-1H-pyrazol-3-yl)amino]pyrimidin-2-yl]phenyl]ethanone] | B+ | 10 to 50
7 | Cc1cc(-c2ccc(S(N)(=O)=O)s2)nc(Nc2cc(C3CC3)n[nH]2)n1 [Compound 322, 5-[2-[(5-cyclopropyl-2H-pyrazol-3-yl)amino]-6-methyl-pyrimidin-4-yl]thiophene-2-sulfonamide] | B++ | 1 to 10
8 | NS(=O)(=O)c1ccc(-c2nccc(Nc3cc(C4CC4)[nH]n3)n2)cc1 [Compound 323, 4-[4-[(5-cyclopropyl-1H-pyrazol-3-yl)amino]pyrimidin-2-yl]benzenesulfonamide] | B++ | 10 to 50
